Format in all cases: in vivo, human
In assay [1] the test system is Hospitalized elderly test subjects. Briefly: Assessment of general condition by a nurse or care assistant (Table 2). Here is the method: (§1) In the test of Example 1, the test subject was assessed by a nurse or a care assistant for the improvement of the general condition between immediately before the start of the administration of the rice gruel containing a salt of glutamic acid e and 2 months thereafter. The test subjects took the Hasegawa Dementia Scale-Revised for the following 9 items immediately before the administration and 2 months thereafter.

Assay [2] has the same test system. Briefly: Hasegawa Dementia Scale-Revised. To be noted: before vs 2 months after intake; particularly for the items relating to speech; FIG. 3. Here is the method:
as §1
2. what year, what month, what date, what day of the week?
5. continue to subtract 7 from 100
6. say numbers in reverse order
7. read out from memory of item 4
9. say name of vegetables.

Assay [3] has the same test system. In words: Rice gruel with monosodium glutamate monohydrate fed to hospitalized elderly for 2 months; blood indices, eating ratio. To be noted: Friedman test, p<0.05, FIG. 1. The procedure:
Monosodium glutamate monohydrate was added to rice gruel to 0.5 wt %.
Hospitalized elderly test subjects (n=11 (2 males, 9 females), average age of 85.8±8.2, average body weight of 39.7±5.7 kg), were fed the above-mentioned rice gruel with glutamic acid 3 times a day for 2 months, establishing a continuous administration of 0.8 g on average of monosodium glutamate monohydrate per meal.
From 1 month before the start of administration to 2 months after the start of administration, the eating ratio (ratio of weight of food actually eaten to weight of provided food) was measured. Blood samples were collected early in the morning immediately before the start of administration, 1 month after the start of adminstration, 2 months after the start of administration, and 1 month after the completion of administration, and the blood indices were measured. In addition, the body weight was measured.

Where [4] appears, read: of 11 test subjects, before vs 2 months after start of administration.

Each structure is given as a SMILES string. “And” between values parts separate entries of the source, which are not always exact repeats. Equal entries are not always repeated.

Take `N[C@@H](CCC(=O)O)C(=O)[O-].O.[Na+]` [monosodium glutamate monohydrate, Monosodium glutamate monohydrate]: the “mind and body conditions such as speech recovery, expression of emotion” value in assay [1] (almost all test subjects, 2 months after start of administration) is “tendency toward improvement”. In addition, in assay [1] (setting [4]), the “Brighter facial expression: number of test subjects marked ◯” value came to 8, the “Clearer articulation: number of test subjects marked ◯” value is 7, the “Eating by tightly holding a spoon: number of test subjects marked ◯” value was 2 and the “Establishment of conversation: number of test subjects marked ◯” value was 4. For the same compound, in assay [1] (setting [4]), the “Eyes can be opened wide: number of test subjects marked ◯” value turned out to be 6; the “Louder voice: number of test subjects marked ◯” value turned out to be 4; the “Outward facial expression (delight, anger, sorrow and pleasure): number of test subjects marked ◯” value is given as 6; the “Recognition of meal: number of test subjects marked ◯” value is given as 3. In assay [1] (setting [4]), the “Recovery of memory: number of test subjects marked ◯” value came to 2 and the “Use of voice: number of test subjects marked ◯” value came to 4. Further, the “1 point for ◯, total points (scale of one to ten)” value in assay [1] (one value per individual test subject (No. 6598, 7012, 7020, 6342, 6990, 5039, 7082, 7142, 6957, 5742, 6362), 2 months, monohydrate) is 7 points and 3 points (5×) and 10 points and 2 points (2×) and 6 points and 4 points. In addition, the “Hasegawa Dementia Scale-Revised grade points” value in assay [2] is reported as “grade points increased”. The peripheral lymphocyte count entry in assay [3] (1 month after completion of administration compared to during administration) is on record as “significantly decreased”. Also, the peripheral lymphocyte count result in assay [3] (during 2 months of administration, 0.8 g per meal 3 times a day) is given as “increased significantly”.
